Active and inactive are the calls of the source. The calls are words filed in the database; no cut-off is given here.
Tests used:
[1] = biological target: T1, Human immunodeficiency virus type 1 integrase (Human immunodeficiency virus 1, UniProt Q7ZJM1)
Enterobacteria phage T3 = assay: Inhibition of T3 polymerase
[2] = biological target: DNA polymerase I (Escherichia coli) (UniProt P00582); assay: Inhibition of Klenow fragment
[3] = test system: Bovine viral diarrhea virus 1; assay: Antiviral activity against BVDV; assay type: functional, organism-based
[4] = test system: Respiratory syncytial virus; assay: Antiviral activity against RSV; assay type: functional, organism-based
[5] = test system: Human immunodeficiency virus 1; assay: Antiviral activity against HIV1; assay type: functional, organism-based
Enterovirus = assay: Antiviral activity against Rhinovirus; assay type: functional, organism-based
[6] = test system: Human immunodeficiency virus 1; assay: Antiviral activity against wild-type HIV1 NL4-3; assay type: functional, organism-based; conditions: Human immunodeficiency virus 1, NL4-3
[7] = test system: Human immunodeficiency virus 1; assay: Antiviral activity against HIV1 T66I, L172F mutant; assay type: functional, organism-based
[8] = test system: Human immunodeficiency virus 1; assay: Antiviral activity against HIV1 V151A, V165I mutant; assay type: functional, organism-based
[9] = test system: Human immunodeficiency virus 1; assay: Antiviral activity against HIV1 NL4-3 T66I mutant; assay type: functional, organism-based; conditions: Human immunodeficiency virus 1, NL4-3
[10] = biological target: T1, Human immunodeficiency virus type 1 integrase; assay: Inhibition of HIV1 recombinant integrase in pre-integration complex
[11] = biological target: Human immunodeficiency virus type 1 protease (Human immunodeficiency virus 1) (UniProt Q72874); assay: Inhibition of HIV protease
[12] = biological target: Human immunodeficiency virus type 1 reverse transcriptase (Human immunodeficiency virus 1) (UniProt Q72547); assay: Inhibition of HIV-RT
[13] = biological target: Genome polyprotein (Bovine viral diarrhea virus (strain CP7) (BVDV) (Mucosal diseasevirus)) (UniProt Q96662); assay: Inhibition of BVDV polymerase; conditions: Bovine viral diarrhea virus 1
[14] = biological target: T1, Human immunodeficiency virus type 1 integrase; remark: listed apart in the source

| IC50 [1] | Compound | also measured |
| --- | --- | --- |
| 0.6 µM | O=C(CC(=O)C(=O)O)CC(=O)c1cccc2ccccc12 |  |
| 9 µM | O=C(CCc1ccccc1Cl)CC(=O)C(=O)O |  |
| 2 µM | O=C(CC(=O)C(=O)O)CC(=O)c1ccc(-c2ccccc2)cc1 |  |
| 8 µM | O=C(CC(=O)C(=O)O)CC(=O)c1cccc(Cl)c1 |  |
| 30 µM | O=C(/C=C(\O)C(=O)O)CCc1ccccc1 |  |
| 5 µM | O=C(/C=C(\O)C(=O)O)CCc1ccccc1Br |  |
| 4 µM | COc1ccccc1C(=O)CC(=O)CC(=O)C(=O)O |  |
| 80 µM | O=C(CC(=O)C(=O)O)CC(=O)c1ccccc1 |  |
| 6 µM | O=C(CC(=O)C(=O)O)CC(=O)c1ccc2ccccc2c1 |  |
| 3 µM | O=C(CC(=O)C(=O)O)CC(=O)c1ccccc1F |  |
| 100 µM | O=C(CC(=O)C(=O)O)CC(=O)c1ccccn1 |  |
| 6 µM | O=C(CC(=O)C(=O)O)CC(=O)c1ccccc1C(F)(F)F |  |
| 125 µM | O=C(CC(=O)c1nnn[nH]1)CC(=O)c1ccccc1Cl |  |
| > 300 µM | O=C(CC(=O)C(=O)O)CC(=O)c1cccnc1 |  |
|  | O=C(/C=C(\O)C(=O)O)CCc1ccc(Cl)c(Cl)c1 | IC50 [14]: 0.01 µM |
| > 125 µM | O=C(CC(=O)c1cccn1Cc1ccc(F)cc1)c1nnn[nH]1 |  |
| 7 µM | O=C(CC(=O)C(=O)O)CC(=O)c1ccccc1OCc1ccccc1 |  |
| 26 µM | O=C(/C=C(\O)C(=O)O)CCc1ccccc1Cl |  |

| Compound | IC50 [1] | also measured |
| --- | --- | --- |
| O=C(CC(=O)C(=O)O)CC(=O)c1ccccc1Cl | 1 µM | Activity (Enterobacteria phage T3): inactive; Activity [2]: inactive; Activity [3]: inactive; Activity [4]: inactive; EC50 [5]: 120 µM; Activity (Enterovirus): inactive; EC50 [6]: 55 µM; EC50 [7]: > 200 µM; EC50 [8]: > 200 µM; EC50 [9]: > 200 µM; IC50 [10]: 0.6 µM; Activity [11]: inactive; Activity [12]: inactive; Activity [13]: inactive; IC50 [14]: 0.2 µM |
| O=C(O)C(=O)/C=C(\O)c1c[nH]c2ccc(Cl)cc12 | 0.4 µM | IC50 [14]: 0.08 µM |
